# According to US6960586B2, “Imidazole derivatives, process for their preparation and their use” (Takeda Pharmaceutical Company Limited, priority 2000, dated 2005):
# Experiments:
# testosterone synthesis = assay: Assay of inhibitory activity on testosterone synthesis in rats; assay type: in vivo, rat; conditions: 25 mg/kg orally, male SD rats, serum testosterone two hours after administration, relative to control group
# Experimental: Assay of Inhibitory Activity on Testosterone Synthesis in Rats
# Test compounds (25 mg/kg) were orally administered to 9-week-old male SD (Sprague Dawley) rats. Two hours after administration of the compounds, blood was drawn and testosterone concentration in the obtained serum was measured by radioimmunoassay. The percentage (T/C, %) of the testosterone concentration of test compounds administration group to that of the control group was calculated, and taken as the inhibitory activity on testosterone synthesis.
# Rat Steroid C17,20-lyase = target: T1, Rat Steroid C17,20-lyase (Rattus norvegicus, UniProt P11715); assay: Assay of inhibitory activity on rat steroid C17,20-lyase (testis microsomes); assay type: biochemical; conditions: 10 nM [1,2-3H]-17α-hydroxyprogesterone, 37° C., 7 minutes
# T1 construct: Testes were excised from 10- to 13-week-old male SD rats, homogenized, and centrifuged to give microsomes; from tissue; host or cells: testis microsomes of male SD rats
# T1 sequence (P11715 1-507): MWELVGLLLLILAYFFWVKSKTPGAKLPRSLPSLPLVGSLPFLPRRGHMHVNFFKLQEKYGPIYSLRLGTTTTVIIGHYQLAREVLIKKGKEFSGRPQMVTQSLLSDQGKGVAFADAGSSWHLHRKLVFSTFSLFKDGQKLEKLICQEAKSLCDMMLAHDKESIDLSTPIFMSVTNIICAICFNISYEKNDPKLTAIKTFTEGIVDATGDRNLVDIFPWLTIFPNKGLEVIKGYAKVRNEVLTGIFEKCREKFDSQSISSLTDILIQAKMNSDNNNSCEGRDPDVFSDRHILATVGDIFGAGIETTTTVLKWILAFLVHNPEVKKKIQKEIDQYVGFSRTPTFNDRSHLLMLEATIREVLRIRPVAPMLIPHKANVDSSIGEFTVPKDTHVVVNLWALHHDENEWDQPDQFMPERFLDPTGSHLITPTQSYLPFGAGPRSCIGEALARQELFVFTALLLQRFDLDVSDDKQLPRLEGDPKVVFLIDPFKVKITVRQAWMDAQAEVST
# Experimental: Assay of Inhibitory Activity on Rat Steroid C17,20-lyase
# The activity was determined according to The Prostate, vol. 26, 140-150 (1995).
# Testes were excised from 10- to 13-week-old male SD rats, homogenized, and centrifuged to give microsomes. [1,2-^3H]-17α-hydroxyprogesterone having a final concentration of 10 nM, NADPH solution and test compounds were dissolved in 10 μl of 100 mM phosphate buffer (pH 7.4) and microsome protein (7 μg/10 μl) was added. The reaction mixture was incubated at 37° C. for 7 minutes. Ethyl acetate (40 μl) was added and the mixture was centrifuged. The substrate and the products (androstenedione and testosterone) in the supernatant were separated by silica gel thin layer chromatography (TLC). The spots were detected and quantitatively determined by BAS 2000 Bioimage analyzer. The concentration of the test compounds necessary to reduce the amount of the products by 50% (IC50) relative to the amount of the products without test compound (control) as 100% was calculated, and shown in Table 1.
# human CYP3A4 = target: T2, human CYP3A4 (Homo sapiens, UniProt P08684); assay: Assay of human CYP3A4-inhibitory activity; assay type: in vitro ADME; conditions: testosterone 100 μM as substrate, 6β-hydroxytestosterone formation, 37° C., 30 min
# T2 construct: purchased GENTEST
# Experimental: Assay of Human CYP3A4-Inhibitory Activity
# Performed as in the following according to Journal of Biological Chemistry, vol. 256, 11937 (1983).
# A phosphate buffer solution (50 mM, pH 7.4) containing testosterone (final concentration 100 μM, hereinafter the same), human CYP3A4 (10 pmol/ml, manufactured by GENTEST), NADPH producing system (0.5 mM NADP, 5 mM glucose-6-phosphate, 5 mM magnesium chloride, 1.5 units/ml glucose-6-phosphate dehydrogenase) and the test compound was incubated at 37° C. for 30 min. Acetonitrile was added to the reaction mixture and the mixture was stirred and centrifuged. The 6β-hydroxytestosterone in the obtained supernatant was analyzed by high performance liquid chromatography. The concentration (IC50) of the compound necessary for 50% inhibition was calculated taking the production amount without addition of the test compound as 100%.
# T2 sequence (P08684 whole entry): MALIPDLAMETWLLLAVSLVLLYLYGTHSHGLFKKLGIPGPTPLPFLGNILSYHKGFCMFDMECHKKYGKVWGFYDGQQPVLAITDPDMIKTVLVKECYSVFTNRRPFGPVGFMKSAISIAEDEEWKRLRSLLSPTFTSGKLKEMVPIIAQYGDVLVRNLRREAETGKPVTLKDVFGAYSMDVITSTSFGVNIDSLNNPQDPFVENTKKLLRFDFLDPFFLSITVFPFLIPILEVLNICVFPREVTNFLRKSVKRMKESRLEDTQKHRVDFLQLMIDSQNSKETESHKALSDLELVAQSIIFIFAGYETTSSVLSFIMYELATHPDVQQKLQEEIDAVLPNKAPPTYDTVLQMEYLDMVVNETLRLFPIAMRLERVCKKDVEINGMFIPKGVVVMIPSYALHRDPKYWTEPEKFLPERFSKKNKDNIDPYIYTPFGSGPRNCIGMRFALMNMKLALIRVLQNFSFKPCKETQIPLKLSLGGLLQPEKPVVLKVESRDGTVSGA
Structure (SMILES),"IC50 (Rat Steroid C17,20-lyase) [nM]",IC50 (human CYP3A4) [nM],"Testosterone synthesis inhibitory activity (T/C, %) (testosterone synthesis) [%]"
"CC(C)C(O)(c1ccc2c3c(ccc2c1)C(=O)N(C)C3)c1c[nH]cn1 (single isomer, unassigned; (-)) [Example 16, (−)-7-[1-hydroxy-1-(1H-imidazol-4-yl)-2-methylpropyl]-2-methyl-1,2-dihydro-3H-benzo[e]isoindol-3-one]",–,–,4.3
"CC(C)C(O)(c1ccc2c3c(ccc2c1)C(=O)NC3)c1c[nH]cn1 (stereo not shown) [Example 1, 7-[1-hydroxy-1-(1H-imidazol-4-yl)-2-methylpropyl]-1,2-dihydro-3H-benzo[e]isoindol-3-one]",< 10,–,6.0
"CC(C)C(O)(c1ccc2c3c(ccc2c1)C(=O)N(C)C3)c1c[nH]cn1 (stereo not shown) [Example 2, 7-[1-hydroxy-1-(1H-imidazol-4-yl)-2-methylpropyl]-2-methyl-1,2-dihydro-3H-benzo[e]isoindol-3-one]",15,> 10000,–
"CCN1Cc2c(ccc3cc(C(O)(c4c[nH]cn4)C(C)C)ccc23)C1=O (stereo not shown) [Example 3, 2-ethyl-7-[1-hydroxy-1-(1H-imidazol-4-yl)-2-methylpropyl]-1,2-dihydro-3-benzo[e]isoindol-3-one]",23,> 10000,–

# Continued, in another order:
"IC50 (Rat Steroid C17,20-lyase) [nM]",IC50 (human CYP3A4) [nM],Structure (SMILES),"Testosterone synthesis inhibitory activity (T/C, %) (testosterone synthesis) [%]"
42,> 10000,"CC(C)C(O)(c1ccc2cc3c(cc2c1)CNC3=O)c1c[nH]cn1 (stereo not shown) [Example 10, 6-[1-hydroxy-1-(1H-imidazol-4-yl)-2-methylpropyl]-2,3-dihydro-1H-benzo[f]isoindol-1-one]",–
22,–,"CC(C)CC(O)(c1ccc2c3c(ccc2c1)C(=O)N(C)C3)c1c[nH]cn1 (stereo not shown) [Example 14, 7-[1-hydroxy-1-(1H-imidazol-4-yl)-3-methylbutyl]-2-methyl-1,2-dihydro-3H-benzo[e]isoindol-3-one]",–
